Six compounds from patent US20230203060A1 (GENFLEET THERAPEUTICS (SHANGHAI) INC., priority 2020, published 2023) can be followed below.

Counter-ions that a name gives are not always drawn. Like-named read-outs stand apart in the source and are kept apart here.

One experiment concerns the target T1, KRAS G12C (Homo sapiens, UniProt P01116, G12C).
T1 construct: purchased Reactionbiology
Nature of the experiment: KRAS G12C NEA-HTRF experiment (SOS1-catalyzed displacement of GDP by GTP). The format is biochemical. The method in brief:
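His-tagged KRAS G12C preloaded with DY647-GDP was preincubated 15 min at 20 °C with compound, then exchanged with SOS1 (0.2 μM working solution) and GTP (200 μM working solution) for 2 h at 20 °C in the dark. HTRF 665/615 nm ratio with anti-His-Tb was normalised to T0 and no-compound controls; IC50 by four-parameter fit.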
On the technique in general: Time-resolved FRET reads energy transfer from a long-lived donor to a nearby acceptor.

The subject of experiment [1] is KRAS G12C mutant MIA PaCa-2 cells. Briefly: Cell proliferation inhibition experiment, 3D spheroid, CellTiter-Glo, MIA PaCa-2. The format is cell-based, human. As to conditions: read-out: MIA-PaCa2 IC50. The method in brief:
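200 MIA PaCa-2 cells/well grown overnight as 3D spheroids, then exposed to 3.16-fold compound dilutions (0.1% DMSO final) for 5 days. Viability read by CellTiter-Glo luminescence; inhibition calculated against DMSO and medium-only controls, and IC50 fitted by four-parameter model.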

Setting [2] is: Homo sapiens, MIA PaCa-2, 120 h, 3D cell model in 384-well spheroid plate, 5 days, CellTiter-Glo.
[3] abbreviates: 3D cell model in 384-well spheroid plate, 5 days, CellTiter-Glo.

T1 sequence (P01116 1-188 isoform P01116-2 G12C): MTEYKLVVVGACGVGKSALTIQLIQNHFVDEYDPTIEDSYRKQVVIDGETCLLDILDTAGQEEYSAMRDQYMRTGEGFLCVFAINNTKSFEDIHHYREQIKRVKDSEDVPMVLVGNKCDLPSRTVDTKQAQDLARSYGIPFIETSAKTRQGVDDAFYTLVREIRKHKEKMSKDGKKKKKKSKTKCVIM

The term IC50 denotes the midpoint of a concentration-inhibition curve. For `C=CC(=O)N1CCN2C(=O)c3c(N4CCN(C)C(C)(C)C4)nc(-c4c(O)cccc4F)c(Cl)c3OC[C@H]2C1` [Z261, (6aR)-8-acryloyl-4-chloro-3-(2-fluoro-6-hydroxyphenyl)-1-(3,3,4-trimethylpiperazin-1-yl)-6,6a,7,8,9,10-hexahydro-12H-pyrazino[2,1-c]pyrido[3,4-f][1,4]oxazepin-12-one], the IC50 on KRAS G12C was determined as 0.15 µM; in experiment [1] (setting [2]) it was 0.0106 µM.

For the compound `C=CC(=O)N1CCN2C(=O)c3c(N4CCNC(C)C4C)nc(-c4c(O)cccc4F)c(Cl)c3OC[C@H]2C1` (stereo partly drawn) [Z308, (6aR)-8-acryloyl-4-chloro-1-(2,3-dimethylpiperazin-1-yl)-3-(2-fluoro-6-hydroxyphenyl)-6,6a,7,8,9, 10-hexahydro-12H-pyrazino[2,1-c]pyrido[3,4-f][1,4]oxazepin-12-one], the IC50 was 0.167 µM at KRAS G12C and 0.034 µM in experiment [1] (setting [2]).

Take `C=CC(=O)N1CCN2C(=O)c3c(N4CCN(C)C(C)C4C)nc(-c4c(O)cccc4F)c(Cl)c3OC[C@H]2C1` (stereo partly drawn) [Z308a, (6aR)-8-acryloyl-4-chloro-3-(2-fluoro-6-hydroxyphenyl)-1-(2,3,4-trimethylpiperazin-1-yl)-6,6a,7,8,9,10-hexahydro-12H-pyrazino[2,1-c]pyrido[3,4-f][1,4]oxazepin-12-one]: the values for the IC50 (at KRAS G12C; in experiment [1] (setting [3])) were 0.111 µM and 0.0017 µM, respectively.

On to `C=CC(=O)N1CCN2C(=O)c3c(C4NCCN5C(=O)CCC45C)nc(-c4c(O)cccc4F)c(Cl)c3OC[C@H]2C1` (stereo partly drawn) [Z337, (6aR)-8-acryloyl-4-chloro-3-(2-fluoro-6-hydroxyphenyl)-1-(8a-methylhexahydropyrrolo[1,2-a]pyrazin-6 (2H)-one-1-yl)-6,6a,7,8,9,10-hexahydro-12H-pyrazino[2,1-c]pyrido[3,4-f][1,4]oxazepin-12-one], for which the IC50 on KRAS G12C is 0.058 µM; in experiment [1] (setting [3]), 0.016 µM.

Turning to `C=CC(=O)N1CCN2C(=O)c3c(N4CCN(C)C(C)(C)C4)nc(-c4ccccc4F)c(Cl)c3OC[C@H]2C1` [Z463, (R)-8-acryloyl-4-chloro-3-(2-fluorophenyl)-1-(3,3,4-trimethylpiperazin-1-yl)-6,6a,7,8,9,10-hexahydro-12H-pyrazino[2,1-c]pyrido[3,4-f][1,4]oxazepin-12-one, formate], the IC50 stood at 0.76 µM on KRAS G12C and 0.059 µM in experiment [1] (Homo sapiens, MIA PaCa-2, 120 h).

Turning to `C=CC(=O)N1CCN2C(=O)c3c(N4CC(N(C)CC(F)F)CC4(C)C)nc(-c4ccccc4F)c(Cl)c3OC[C@H]2C1` (stereo partly drawn) [Z659], the figures for the IC50 (on KRAS G12C; in experiment [1] (setting [3])) were 0.0194 µM and 0.0093 µM, respectively.
